Reference: publication PMC6033896, “Discovery of Mcl-1 inhibitors from integrated high throughput and virtual screening” (Scientific Reports, 2018)
Where “and” joins values, the source holds several entries; their conditions need not be identical. Identical values can stand only once.

Experiments:
[1] = molecular target: T1, Bfl-1 (Homo sapiens, UniProt Q16548); experiment: FP-based competitive binding assay with FAM-Bid; conditions: for IC50: Bfl-1
T1 construct: Bf l-1 (residues 1-151); His tag (pHis-TEV vector) (N, cleaved yes); made in house; host or cells: E. coli BL21 (DE3)
T1 sequence (Q16548 1-151): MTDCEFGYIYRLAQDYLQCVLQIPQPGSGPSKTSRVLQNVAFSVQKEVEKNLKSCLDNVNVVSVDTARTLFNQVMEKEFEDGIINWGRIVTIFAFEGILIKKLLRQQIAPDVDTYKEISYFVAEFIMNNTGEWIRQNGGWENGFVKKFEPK
Protocol: (§1) FP-based binding assays were developed and optimized to determine the binding affinities of inhibitors to the recombinant Mcl-1, Bcl-2, Bcl-xL, and Bfl-1, proteins. […] The fluorescent Bid probe was fixed at 2 nM for all assays, except for Bfl-1, where 1 nM was used. 5 μL of the tested compound in DMSO and 120 μL of protein/probe complex in the assay buffer were added to assay plates (Corning #3792), incubated at room temperature for 3 h, and the polarization values (mP) were measured at an excitation wavelength of 485 nm and an emission wavelength of 530 nm using the plate reader Synergy H1 Hybrid, BioTek. IC50 values were determined by nonlinear regression fitting of the competition curves (GraphPad Prism 6.0 Software). The Ki values were calculated as described previously.
(§2) 1. List of compounds purchased from vendors
(§3) Compound s 5, 6, 7, 8 and S3, S4, S5, S6 S7, S8, S9, S10, S17 were purchased from […]
(§4) Compound s 9, 10, 11 and S11, S12, S13 were purchased from I nterbioscreen […]
(§5) His-tagged proteins containing human Mcl-1 (residues 171–323), the isoform 2 construct of the human Bcl-2 [Bcl2-2 construct for protein production starts with the Bcl2 sequence of 1-34 a a, followed by the Bcl-xL seq uence of 35-50 aa, and ends with the Bcl-2 sequenc e of 92-202aa.], Bcl-xL (Human Bcl-xL protein, which has an internal deletion for the 45 -85 amino acid residues and a C -terminal truncation for the amino acid residues 212-233), and Bf l-1 (residues 1-151), were expres sed from the pHis -TEV vector (a modified pET vector) in E. coli BL21 (DE3) cells. Cells were grown at 37 °C in 2×YT containing antibiotics to an OD600 density of 1.5, 1 and 0.8 for Mcl-1, Bcl-xL and Bcl-2 respectively. Protein expression wa s induced by 0 .4 mM IPTG at 20 °C overnight for all proteins except for Bf l-1 which was e xpressed at 3 7 °C for four hours . Cells were lysed in 20 mM HEPES pH 7.5, 200 mM NaCl, 0.1% βME with Leupeptin/Aprotinin (Mcl-1), 25mM Tris pH 8.5, 200mM NaCl (Bcl-2), 50mM Tris pH 7.5, 200 mM NaCl (Bcl-xL) and 50 mM Tris pH 8, 500 mM NaCl, 0. 1% βME with Leupeptin/Aprotinin (Bf l-1). All

[2] = molecular target: T2, Mcl-1 protein (Homo sapiens, UniProt Q07820); experiment: TR-FRET binding assay with Bid-Dy647 peptide; conditions: 10 nM Mcl-1, 10 nM Bid-Dy647
T2 construct: human Mcl-1 (residues 171–323); His tag (pHis-TEV vector) (N, cleaved yes); made in house; host or cells: E. coli BL21 (DE3)
T2 sequence (Q07820 171-323): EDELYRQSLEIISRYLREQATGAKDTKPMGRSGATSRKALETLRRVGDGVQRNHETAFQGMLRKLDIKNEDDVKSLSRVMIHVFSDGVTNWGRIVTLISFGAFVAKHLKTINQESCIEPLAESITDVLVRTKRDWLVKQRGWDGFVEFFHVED
Protocol: TR-FRET was performed using black 384-well plates in an Envision Multilabel plate reader (Perkin Elmer Life Sciences). To each well, a mixture of 10 nM Bid-Dy647 peptide (79–99), 10 nM Mcl-1 protein, and Europium-anti-His antibody were added to a final volume of 25 μl in the assay buffer (20 mM potassium phosphate, pH 7.5; 50 mM NaCl, 1 mM EDTA and 0.05% Pluronic F68). The TR-FRET signals were measured with an Envision Multilabel plate reader after 2 h of incubation. (Ex 340 nm, Em615 nm and Em665 nm) and expressed as FRET signal ratio (F665 nm/[…] * 104)

[3] = molecular target: T2, Mcl-1 protein; experiment: FP-based competitive binding assay with fluorescent labelled Bid BH3 peptide; conditions: for Ki: calculated from FP IC50; for IC50: competition with fluorescent Bid probe 2 nM, 20 nM Mcl-1 for purchased compounds, 10 nM for synthesized library
Protocol: as §1, §2, §3, §4
as §5, with “All […]” for “All”
proteins were purified from the soluble fraction using Ni-NTA resin (QIAGEN), following the manufacturer’s instructions. For purification of TEV-cleaved protein, the amino-terminal His tag was cleaved by incubation with TEV protease and the protein was further purified by anion exchange (Source Q) and gel filtration chromatography (Superdex 75, Amersham Biosciences) in 20mM HEPES pH 7.0, 50 mM NaCl (Mcl-1), […]
NaCl, 0.1% βME (Bcl-xL) and 25 mM Tris pH 7.5, 150 mM NaCl, 25% Glycerol, 0.1% βME ( Bf l-1). His-tagged Mcl-1 protein was used for TR-FRET assay and HSQC-NMR.
His-TEV cleaved Mcl-1, Bcl-2, Bcl-xL, and Bf l-1 were used in fluorescent polarization and surface plasmon resonance binding assays.
Mutant Mcl-1 protein wa s prepared by the QuikChange site -directed mutagenesi s method (Stratagene) , where Arg263 was mutated to Ala. The R263A expression pla smid was transformed into Rosetta2 DE3 cells and purified by the same method as the wildtype protein. Cultures were grown to an OD 600 of 1. 5 at 37 °C in Terrific Broth, induced with 0. 4 mM IPTG, and express ed overnight at 20 °C. The follow-up purification was performed the same way as was for Mcl-1 wild-type recombinant

| Compound | IC50 [1] | Ki ([1]; FP) | binding to Bfl-1 compared with Mcl-1 ([1]; FP) | IC50 [2] | Ki [3] | IC50 [3] | fold lower binding affinity to Bfl-1 than to Mcl-1 ([1]; ratio of Ki) |
| --- | --- | --- | --- | --- | --- | --- | --- |
| O=C(CSc1nnc(-c2ccco2)c(-c2ccco2)n1)Nc1ccccc1 [Compound 19] | 35.6 ± 8.6 µM | 4.9 µM | lower binding to Bfl-1 in comparison to Mcl-1 | 11.9 ± 3.7 µM | 3.2 ± 0.3 µM | 13 µM and 13.8 µM | – |
| c1ccc(CCCCSc2nnc(-c3ccco3)c(-c3ccco3)n2)cc1 [Compound 44] | 5.1 ± 0.1 µM | 0.7 ± 0.1 µM | – | 2.5 ± 0.1 µM | 0.3 ± 0.1 µM | 1.4 ± 0.2 µM | – |
| O=C(CSc1nnc(-c2ccco2)c(-c2ccco2)n1)Nc1cccc(C(F)(F)F)c1 [Compound 39] | 75.9 ± 6.2 µM | 10.4 µM | – | 7.1 ± 2.8 µM | 1.2 ± 0.1 µM | 5.1 ± 0.5 µM | 8 fold |
